Assay results taken from patent US6399782B1, “Benzimidazole inhibitors of fructose 1,6-bisphosphatase” (Metabasis Therapeutics, Inc., priority 1997, dated 2002).

Experiments:
Human adenosine kinase = biological target: T1, Human adenosine kinase (Homo sapiens, UniProt P55263); experiment: Adenosine kinase selectivity assay; type: biochemical; settings: for IC50: Table 3 Selectivity, read-out: Adenosine Kinase (inh.); for effect on adenosine kinase: result in words
T1 construct: made in house; host or cells: E. coli
T1 sequence (P55263 1-345 isoform P55263-2): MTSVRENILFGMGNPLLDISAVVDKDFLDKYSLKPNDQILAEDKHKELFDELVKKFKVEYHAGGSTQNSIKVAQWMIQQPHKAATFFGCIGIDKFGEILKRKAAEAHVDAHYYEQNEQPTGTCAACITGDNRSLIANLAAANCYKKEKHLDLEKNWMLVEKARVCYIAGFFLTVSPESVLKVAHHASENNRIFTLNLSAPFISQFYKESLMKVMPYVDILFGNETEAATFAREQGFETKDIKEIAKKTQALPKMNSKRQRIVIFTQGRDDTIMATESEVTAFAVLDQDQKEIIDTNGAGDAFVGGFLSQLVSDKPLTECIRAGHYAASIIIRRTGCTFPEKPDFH
Procedure: (§1) To determine the selectivity of compounds towards FBPase, effects of FBPase inhibitors on 5 key AMP binding enzymes were measured using the assays described below:
Adenosine Kinase: Human adenosine kinase was purified from an E. coli expression system as described by Spychala et al (Spychala, J., Datta, N. S., Takabayashi, K., Datta, M., Fox, I. H., Gribbin, T., and Mitchell, B. S. (1996) Proc. Natl. Acad. Sci. USA 93, 1232-1237). Activity was measured essentially as described by Yamada et at (Yamada, Y., Goto, H., Ogasawara, N. (1988) Biochim. Biophys. Acta 660, 36-43.) with a few minor modifications. Assay mixtures contained 50 mM TRIS-maleate buffer, pH 7.0, 0.1% BSA, 1 mM ATP 1 mM MgCl2, 1.0 μM [U-^14C] adenosine (400-600 mCi/mmol) and varying duplicate concentrations of inhibitor. ^14C-AMP was separated from unreacted ^14C-adenosine by absorption to anion exchange paper (Whatman) and quantified by scintillation counting.

Porcine heart AMPDA = experiment: Adenosine monophosphate deaminase selectivity assay; type: biochemical; settings: AMP deaminase vs hlFBPase
Procedure: as §1
Adenosine Monophosphate Deaminase: Porcine heart AMPDA was purified essentially as described by Smiley et al. (Smiley, K. L., Jr, Berry, A. J., and Suelter, C. H. (1967) J. Biol. Chem. 242, 2502-2506) through the phosphocellulose step. Inhibition of AMPDA activity was determined at 37° C. in a 0.1 mL assay mixture containing inhibitor, ˜0.005 U AMPDA, 0.1% bovine serum albumin, 10 mM ATP, 250 mM KCl, and 50 mM MOPS at pH 6.5. The concentration of the substrate AMP was varied from 0.125-10.0 mM. Catalysis was initiated by the addition of enzyme to the otherwise complete reaction mixture, and terminated after 5 minutes by injection into an HPLC system. Activities were determined from the amount of IMP formed during 5 minutes.

[1] = biological target: T2, Phosphofructokinase (rabbit liver) (Oryctolagus cuniculus, UniProt Z9KA34MY27); experiment: Phosphofructokinase selectivity assay; type: biochemical; settings: result in words
T2 construct: Phosphofructokinase: Enzyme (rabbit liver) was purchased from Sigma
T2 sequence (Z9KA34MY27 1-780): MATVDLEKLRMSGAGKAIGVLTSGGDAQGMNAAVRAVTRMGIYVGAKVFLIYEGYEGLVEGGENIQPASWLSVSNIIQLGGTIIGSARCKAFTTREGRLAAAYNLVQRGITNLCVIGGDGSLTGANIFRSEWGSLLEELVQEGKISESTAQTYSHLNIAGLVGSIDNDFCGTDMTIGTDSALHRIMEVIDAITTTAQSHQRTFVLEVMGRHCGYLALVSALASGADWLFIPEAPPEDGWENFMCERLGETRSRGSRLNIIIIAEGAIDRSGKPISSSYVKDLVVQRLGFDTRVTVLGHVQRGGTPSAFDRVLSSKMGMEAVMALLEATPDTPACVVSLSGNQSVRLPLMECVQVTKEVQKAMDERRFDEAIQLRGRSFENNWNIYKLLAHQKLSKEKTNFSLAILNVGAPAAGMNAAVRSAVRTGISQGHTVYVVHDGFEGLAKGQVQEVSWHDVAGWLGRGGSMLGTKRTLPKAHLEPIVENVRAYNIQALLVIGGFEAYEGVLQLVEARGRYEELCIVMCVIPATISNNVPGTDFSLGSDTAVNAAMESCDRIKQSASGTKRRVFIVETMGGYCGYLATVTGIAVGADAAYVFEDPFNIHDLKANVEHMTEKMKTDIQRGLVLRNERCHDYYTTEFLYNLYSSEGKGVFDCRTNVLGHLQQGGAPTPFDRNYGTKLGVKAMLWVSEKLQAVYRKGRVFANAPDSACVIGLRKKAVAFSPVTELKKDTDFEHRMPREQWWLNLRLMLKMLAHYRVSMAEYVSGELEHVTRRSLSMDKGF
Procedure: as §1
Phosphofructokinase: Enzyme (rabbit liver) was purchased from Sigma. Activity was measured at 30° C. in reactions in which the formation of fructose 1,6-bisphosphate was coupled to the oxidation of NADH via the action of aldolase, triosephosphate isomerase, and α-glycerophosphate dehydrogenase. Reaction mixtures (200 μL) were made up in 96-well microtitre plates and were read at 340 nm in a Molecular Devices Microplate Reader. The mixtures consisted of 200 mM Tris-HCl pH 7.0, 2 mM DTT, 2 mM MgCl2, 0.2 mM NADH, 0.2 mM ATP, 0.5 mM Fructose 6-phosphate, 1 unit aldolase/ml, 3 units/ml triosephosphate isomerase, and 4 units/mL α-glycerophosphate dehydrogenase. Test compound concentrations ranged from 1 to 500 μM. Reactions were started by the addition of 0.0025 units of phosphofructokinase and were monitored for 15 minutes.

[2] = system: fasted Sprague Dawley rats; experiment: Blood glucose lowering in fasted rats; type: in vivo, rat; settings: 20 mg/kg intraperitoneally, 18 hours fasted Sprague Dawley rats, one hour post injection
Procedure: Sprague Dawley rats (250-300 g) were fasted for 18 hours and then dosed intraperitoneally with 20 mg/kg of compounds 12.53, 12.61, or 12.64. The vehicle used for drug administration was 50 mM sodium bicarbonate. Blood samples were obtained from the tail vein of conscious animals just prior to injection and one hour post injection. Blood glucose was measured using a HemoCue Inc. glucose analyzer according to the instructions of the manufacturer.

[3] = system: Zucker Diabetic Fatty rats; experiment: Inhibition of gluconeogenesis in Zucker Diabetic Fatty rats (14C-bicarbonate incorporation into glucose); type: in vivo, rat; settings: 50 mg/kg bolus via jugular catheter
Procedure: Nine Zucker Diabetic Fatty rats (16-weeks old, Genetics Models Inc., Indianapolis, Ind.) were fasted at midnight and instrumented with jugular catheters the following morning. […] After 50minutes a bolus of^14 C-sodium bicarbonate ([…]) was administered via the same route. 20 minutes later, the animals were quickly anesthetized with intravenous pentobarbitol and a blood sample (1.5 mL) was taken by cardiac puncture. Blood (0.5 mL) was diluted into 6 mL deionized water and protein precipitated by addition of 1 mL zinc sulfate (0.3 N) and 1 mL barium hydroxide (0.3 N). The mixture was centrifuged (20 minutes, 1000×g) and 5 mL of the resulting supernatant was then combined with 1 g of a mixed bed ion exchange resin (1 part AG 50W-X8, 100-200 mesh, hydrogen form and 2 parts of AG 1-X8, 100-200 mesh, acetate form) to separate ^14C-bicarbonate from ^14C-glucose. The slurry was shaken at room temperature for four hours and then allowed to settle. An aliquot of the supernatant (0.5 mL) was then counted in 5 mL scintillation cocktail.

[4] = system: 18-hour fasted Sprague Dawley rats; experiment: Glucose lowering following oral administration; type: in vivo, rat
Procedure: The compound was prepared in deionized water, adjusted to neutrality with sodium hydroxide, and brought into solution by sonication prior to administration. Blood glucose was measured immediately prior to dosing, and at 1 hour intervals thereafter. Blood samples were obtained from the tail vein, and measurements made by means of a Hemocue glucose analyzer (Hemocue Inc, Mission Viejo, Calif.) used according to the manufacturer's instructions. […] The average glucose lowering in the four responding animals was 62±8.6% relative to saline-treated controls at the 1 hour time point.

IC50 (Human adenosine kinase) [µM] | effect on adenosine kinase (Human adenosine kinase) | half-maximal inhibition of AMP deaminase relative to IC50 for FBPase (Porcine heart AMPDA) [fold] | effect on phosphofructokinase [1] | melting point [°C] | SMILES | blood glucose lowering [2] [%] | reduction of incorporation of 14C-bicarbonate into 14C-glucose [3] | 14C-Glucose Produced (cpm/mL blood) ([3]; 14C-bicarbonate after 50 minutes, blood 20 minutes later) | % Glucose Produced ([3]; saline = 100) [%] | blood glucose effect, oral 30 mg/kg ([4]; oral gavage 30 mg/kg, 18-hour fasted rats) | blood glucose effect, oral 100 mg/kg ([4]; oral gavage 100 mg/kg, 18-hour fasted rats) | average glucose lowering in the four responding animals ([4]; oral gavage 250 mg/kg, relative to saline-treated controls, 1 hour time point) [%] | animals with profound hypoglycemia ([4]; oral gavage 250 mg/kg, within 1 hour of administration)
> 10 | essentially inactive | 42 | essentially inactive | > 250 | CCn1c(-c2ccc(P(=O)(O)O)o2)nc2c(N)cccc21 [Compound 12.1, 4-Amino-1-ethyl-2-[2-(5-phosphono)furanyl]benzimidazole] |  |  |  |  |  |  |  | 
> 100 | essentially without effect | ~600 | essentially without effect | 258 to 260 | Nc1c(F)ccc2c1nc(-c1ccc(P(=O)(O)O)o1)n2CC1CC1 [Compound 12.61, 4-Amino-5-fluoro-1-cyclopropylmethyl-2-(2-phosphono-5-furanyl)benzimidazole] | 48±15 |  |  |  |  |  |  | 
 |  |  |  |  | CCc1cc(F)c(N)c2nc(-c3ccc(P(=O)(O)O)o3)n(CC(C)C)c12 [Compound 12.64] | 64.6±24 | approximately 50% | 32,827 ± 6130 cpm/mL blood | 49.2 | without effect | without effect | 62±8.6 | 4 out of 5
